Counter-ions that a name gives are not always drawn.

The first assay concerns asynchronous 3D7 chloroquine-sensitive P. falciparum infected red blood cells. Kind of assay: Labeled hypoxanthine incorporation assay (in vitro anti-malarial activity). It counts as cell-based. Conditions: Plasmodium falciparum, 3D7, Erythrocyte, 3D7 chloroquine-sensitive strain, infected RBC, 48 h contact, [3H]-hypoxanthine incorporation; two independent experiments in duplicates; read-out: IC50 assessed on Plasmodium Falciparum.
As for `C[C@@H](COC(=O)N1CCC(n2c(=O)oc3ccccc32)CC1)N(Cc1ccccc1)Cc1ccccc1` [Compound 2, (S)-2-(dibenzylamino)propyl 4-(2-oxobenzo[d]oxazol-3(2H)-yl)piperidine-1-carboxylate], the IC50 is 14800 nM.
The same measure, in the same setting: the result for `C[C@@H](COC(=O)N1CCC(n2cnc3ccccc32)CC1)N(Cc1ccccc1)Cc1ccccc1` [Compound 3, (S)-2-(dibenzylamino)propyl 4-(1H-benzo[d]imidazol-1-yl)piperidine-1-carboxylate] reads 1810 nM.
In the case of `C[C@@H](COC(=O)N1CCC(Oc2nc3ccccc3n2C)CC1)N(Cc1ccccc1)Cc1ccccc1` [Compound 5, (S)-2-(dibenzylamino)propyl 4-(1-methyl-1H-benzo[d]imidazol-2-yloxy)piperidine-1-carboxylate], the IC50 was found to be 6160 nM.
The same measure, in the same setting: the result for `C[C@@H](COC(=O)N1CCC(Nc2ccccc2S(=O)(=O)c2ccccc2)CC1)N(Cc1ccccc1)Cc1ccccc1` [Compound 164, (S)-2-(dibenzylamino)propyl 4-(2-(phenylsulfonyl)phenylamino)piperidine-1-carboxylate] reads 1260 nM; that for `C[C@@H](COC(=O)N1CCC(N(C)c2ccccc2)CC1)N(Cc1ccccc1)Cc1ccccc1` [Compound 166, (S)-2-(dibenzylamino)propyl 4-(N-methyl-N-phenylamino)piperidine-1-carboxylate], 3690 nM.
Same read-out and setting: the result for `C[C@@H](COC(=O)N1CCC(N(c2ccccc2)S(=O)(=O)c2ccc(-c3ccccc3)cc2)CC1)N(Cc1ccccc1)Cc1ccccc1` [Compound 170, (S)-2-(dibenzylamino)propyl 4-(N-phenyl-biphenyl-4-sulfonamido)piperidine-1-carboxylate] reads 2200 nM; that for `C[C@@H](COC(=O)N1CCC(N(c2ccccc2)S(=O)(=O)c2ccc3ccccc3c2)CC1)N(Cc1ccccc1)Cc1ccccc1` [Compound 171, (S)-2-(dibenzylamino)propyl 4-(N-phenyl-naphthalen-2-ylsulfonamido)piperidine-1-carboxylate], 4430 nM.
Same read-out and setting: the result for `C[C@@H](COC(=O)N1CCC(Nc2ccccc2Sc2ccc(Cl)cc2)CC1)N(Cc1ccccc1)Cc1ccccc1` [Compound 173, (S)-2-(dibenzylamino)propyl 4-(2-(4-chlorophenylthio)phenylamino)piperidine-1-carboxylate] reads 2580 nM; that for `Cc1cccc(C)c1NC1CCN(C(=O)OC[C@H](Cc2ccccc2)N(Cc2ccccc2)Cc2ccccc2)CC1` [Compound 174, (S)-2-(dibenzylamino)-3-phenylpropyl 4-(2,6-dimethylphenylamino)piperidine-1-carboxylate], 913 nM; that for `CCc1cccc(CC)c1NC1CCN(C(=O)OC[C@H](Cc2ccccc2)N(Cc2ccccc2)Cc2ccccc2)CC1` [Compound 175, (S)-2-(dibenzylamino)-3-phenylpropyl 4-(2,6-diethylphenylamino)piperidine-1-carboxylate], 2600 nM.
As for `CSc1ccccc1NC1CCN(C(=O)OC[C@H](Cc2ccccc2)N(Cc2ccccc2)Cc2ccccc2)CC1` [Compound 176, (S)-2-(dibenzylamino)-3-phenylpropyl 4-(2-(methylthio)phenylamino)piperidine-1-carboxylate], the IC50 came to 2650 nM.

In a further assay the test system is Toxoplasma gondii RH-β1 strain. Kind of assay: microbe, parasite or virus in culture. It counts as cell-based. The following applies: Toxoplasma gondii, read-out: IC50 assessed on Toxoplama Gondii.
As for `C[C@@H](COC(=O)N1CCC(n2c(=O)oc3ccccc32)CC1)N(Cc1ccccc1)Cc1ccccc1` [Compound 2, (S)-2-(dibenzylamino)propyl 4-(2-oxobenzo[d]oxazol-3(2H)-yl)piperidine-1-carboxylate], the IC50 came to 800 nM.
Still for that read-out and setting: the result for `C[C@@H](COC(=O)N1CCC(n2cnc3ccccc32)CC1)N(Cc1ccccc1)Cc1ccccc1` [Compound 3, (S)-2-(dibenzylamino)propyl 4-(1H-benzo[d]imidazol-1-yl)piperidine-1-carboxylate] reads 8000 nM; that for `C[C@@H](COC(=O)N1CCC(Oc2nc3ccccc3n2C)CC1)N(Cc1ccccc1)Cc1ccccc1` [Compound 5, (S)-2-(dibenzylamino)propyl 4-(1-methyl-1H-benzo[d]imidazol-2-yloxy)piperidine-1-carboxylate], 2500 nM.
Take `CN(CCOC(=O)N1CCC(n2c(=O)[nH]c3ccccc32)CC1)Cc1ccccc1` [Compound 27, 2-(N-benzyl-N-methylamino)ethyl 4-(1,2-dihydro-2-oxobenzo[d]imidazol-3-yl)piperidine-1-carboxylate]: the IC50 is 2000 nM.
Same read-out and setting: the result for `O=C(OCCOCc1ccccc1)N1CCC(n2c(=O)[nH]c3ccccc32)CC1` [Compound 31, 2-(benzyloxy)ethyl 4-(1,2-dihydro-2-oxobenzo[d]imidazol-3-yl)piperidine-1-carboxylate] reads 500 nM.
Still for that read-out and setting: the result for `O=C(OC1CCCN(Cc2ccccc2)C1)N1CCC(n2c(=O)[nH]c3ccccc32)CC1` (centres unmarked) [Compound 33, 1-benzylpiperidin-3-yl 4-(1,2-dihydro-2-oxobenzo[d]imidazol-3-yl)piperidine-1-carboxylate] reads 450 nM.
The same measure, in the same setting: the result for `CC(C)N(CCOC(=O)N1CCC(n2c(=O)[nH]c3ccccc32)CC1)C(C)C` [Compound 34, 2-(diisopropylamino)ethyl 4-(1,2-dihydro-2-oxobenzo[d]imidazol-3-yl)piperidine-1-carboxylate] reads 27000 nM.
In the case of `CN(C)CCOC(=O)N1CCC(n2c(=O)[nH]c3ccccc32)CC1` [Compound 35, 2-(dimethylamino)ethyl 4-(1,2-dihydro-2-oxobenzo[d]imidazol-3-yl)piperidine-1-carboxylate], the IC50 was 4000 nM.
On the same count and under the same terms, in the case of `CCN(CC)CCOC(=O)N1CCC(n2c(=O)[nH]c3ccccc32)CC1` [Compound 39, 2-(diethylamino)ethyl 4-(1,2-dihydro-2-oxobenzo[d]imidazol-3-yl)piperidine-1-carboxylate] it was 12000 nM; in that of `C[C@@H](COC(=O)N1CCC(n2c(=O)n(C(=O)C(C)(C)C)c3ccccc32)CC1)N(Cc1ccccc1)Cc1ccccc1` [Compound 66, (S)-2-(dibenzylamino)propyl 4-(1,2-dihydro-2-oxo-1-(pivaloyl)benzo[d]imidazol-3-yl)piperidine-1-carboxylate], 2800 nM.
Still for that read-out and setting: the result for `C[C@@H](COC(=O)N1CCC(n2c(N)nc3ccccc32)CC1)N(Cc1ccccc1)Cc1ccccc1` [Compound 177, (S)-2-(dibenzylamino)propyl 4-(2-amino-1H-benzo[d]imidazol-1-yl)piperidine-1-carboxylate] reads 3800 nM; that for `O=C(Oc1ccc(N(Cc2ccccc2)Cc2ccccc2)cc1)N1CCC(n2c(=O)[nH]c3ccccc32)CC1` [Compound 178, 4-(dibenzylamino)phenyl 4-(1,2-dihydro-2-oxobenzo[d]imidazol-3-yl)piperidine-1-carboxylate], 1300 nM; that for `C[C@@H](COC(=O)N1CCC(c2cccc3[nH]c(=O)[nH]c23)CC1)N(Cc1ccccc1)Cc1ccccc1` [Compound 179, (S)-2-(dibenzylamino)propyl 4-(2-oxo-2,3-dihydro-1H-benzo[d]imidazol-4-yl)piperidine-1-carboxylate], 3250 nM.
`O=C(OCCCCCCN(Cc1ccccc1)Cc1ccccc1)N1CCC(n2c(=O)[nH]c3ccccc32)CC1` [Compound 180, 6-(dibenzylamino)hexyl 4-(1,2-dihydro-2-oxobenzo[d]imidazol-3-yl)piperidine-1-carboxylate]: the IC50 was 2000 nM.
As for `O=C(OCc1ccccc1)N1CCC(n2c(=O)[nH]c3ccccc32)CC1` [Compound 181, Benzyl 4-(1,2-dihydro-2-oxobenzo[d]imidazol-3-yl)piperidine-1-carboxylate], the IC50 came to 300 nM.
On the same count and under the same terms, the result for `O=C(OCC1CCCCN1Cc1ccccc1)N1CCC(n2c(=O)[nH]c3ccccc32)CC1` (centres unmarked) [Compound 182, (1-benzylpiperidin-2-yl)methyl 4-(1,2-dihydro-2-oxobenzo[d]imidazol-3-yl)piperidine-1-carboxylate] reads 5000 nM; that for `O=C(OC[C@H](Cc1ccccc1)N(Cc1ccccc1)Cc1ccccc1)N1CCC(N(c2ccccc2)S(=O)(=O)c2ccc(C(F)(F)F)cc2)CC1` [Compound 183, (S)-2-(dibenzylamino)-3-phenylpropyl 4-(N-phenyl-4-(trifluoromethyl)phenylsulfonamido)piperidine-1-carboxylate], 3100 nM; that for `C[C@@H](COC(=O)N1CCC(n2c(=O)[nH]c3ccccc32)CC1)N(Cc1ccccc1)Cc1ccc(F)cc1` [Compound 184, (S)-2-(benzyl(4-fluorobenzyl)amino)propyl 4-(2-oxo-2,3-dihydro-1H-benzo[d]imidazol-1-yl)piperidine-1-carboxylate hydrochloride], 3300 nM.
Take `CC(C)(C)OC(=O)N(CCOC(=O)N1CCC(n2c(=O)[nH]c3ccccc32)CC1)Cc1ccccc1` [Compound 185, 2-(benzyl(tert-butoxycarbonyl)amino)ethyl 4-(2-oxo-2,3-dihydro-1H-benzo[d]imidazol-1-yl)piperidine-1-carboxylate]: the IC50 is 2000 nM.
Consider `Cn1c(CN(CCCOC(=O)N2CCC(n3c(=O)[nH]c4ccccc43)CC2)Cc2ccccc2)cc2ccccc21` [Compound 186, 3-(benzyl((1-methyl-1H-indol-2-yl)methyl)amino)propyl 4-(2-oxo-2,3-dihydro-1H-benzo[d]imidazol-1-yl)piperidine-1-carboxylate hydrochloride], for which the IC50 was found to be 4800 nM.
On to `COC(=O)c1ccc(CN(CCOC(=O)N2CCC(n3c(=O)[nH]c4ccccc43)CC2)Cc2ccccc2)cc1` [Compound 187, 2-(benzyl(4-(methoxycarbonyl)benzyl)amino)ethyl 4-(2-oxo-2,3-dihydro-1H-benzo[d]imidazol-1-yl)piperidine-1-carboxylate], for which the IC50 was 2200 nM.
Same read-out and setting: the result for `O=C(OCCCN(Cc1ccccc1)Cc1cccc(OCc2ccccc2)c1)N1CCC(n2c(=O)[nH]c3ccccc32)CC1` [Compound 188, 3-(benzyl(3-(benzyloxy)benzyl)amino)propyl 4-(2-oxo-2,3-dihydro-1H-benzo[d]imidazol-1-yl)piperidine-1-carboxylate] reads 3000 nM; that for `CC(C)C[C@@H](COC(=O)N1CCC(n2c(=O)[nH]c3ccccc32)CC1)NCc1ccccc1` [Compound 189, (S)-2-(benzylamino)-4-methylpentyl 4-(2-oxo-2,3-dihydro-1H-benzo[d]imidazol-1-yl)piperidine-1-carboxylate], 2300 nM; that for `O=C(OCC(Cc1ccccc1)NCc1ccccc1)N1CCC(n2c(=O)[nH]c3ccccc32)CC1` (centres unmarked) [Compound 190, 2-(benzylamino)-3-phenylpropyl 4-(2-oxo-2,3-dihydro-1H-benzo[d]imidazol-1-yl)piperidine-1-carboxylate], 800 nM.

A word on the IC50: it is the concentration that inhibits the measured activity by half.

For the origin of these results see patent US20100292214A1, “Compounds with Antiparasitic Activity, Applications thereof to the Treatment of Infectious Diseases Caused by Apicomplexans” (commissariat a l'Energie Atomique, priority 2007, published 2010).
